Results: patent US12043612B2, “Methods of manufacturing a bifunctional compound, ultrapure forms of the bifunctional compound, and dosage forms comprising the same” (Arvinas Operations, Inc., priority 2020, dated 2024)

Assay: Exploratory stability study on Compound A drug substance (HPLC, water content, XRPD)
Format: physicochemical
Design: Water Content: unit: wt %
Description: This is a reverse phase high performance liquid chromatography (HPLC) method devised to determine the assay and impurity profile of Compound A for release and stability testing. The method was qualified for its intended uses. Forced degradation studies were performed and used to qualify this method as stability indicating. The HPLC parameters are listed below in Table 6.
An exploratory stability study on Compound A is on-going. The stability of Compound A will be studied at 5° C., 25° C./60% RH, and 40° C./75% RH with sampling points at 1, 2, 3, and 6 months. Samples will be analyzed using the stability indicating method TEST-05187 (high performance liquid chromatography (HPLC)).
The critical quality attributes of the drug substance Compound A that will be monitored are appearance, purity, assay (wt %), impurities, water content, and x-ray powder diffraction (XRPD). The container and closure system for the stability study consists of double plastic (PE) bags placed inside an high-density polyethylene (HDPE) container.

[1] = Initial Date (about 3 months after date of manufacture)
[2] = Storage at 5° C. +/− 3° C., Initial Date + 1 Month
[3] = Storage at 5° C. +/− 3° C., Initial Date + 2 Months

N#Cc1ccc(O[C@H]2CC[C@H](NC(=O)c3ccc(N4CCC(CN5CCN(c6cc7c(cc6F)C(=O)N(C6CCC(=O)NC6=O)C7=O)CC5)CC4)nn3)CC2)cc1Cl (some centres unmarked) [Compound A, N-[(1r,4r)-4-(3-chloro-4-cyanophenoxy)cyclohexyl]-6-[4-({4-[2-(2,6-dioxopiperidin-3-yl)-6-fluoro-1,3-dioxo-2,3-dihydro-1H-isoindol-5-yl]piperazin-1-yl}methyl)piperidin-1-yl]pyridazine-3-carboxamide]
Appearance (At Date of Manufacture): Yellow
HPLC Assay (wt %) (At Date of Manufacture): 97.7 wt %
HPLC Impurities (%) RRT 0.50 (Intermediate 5) (At Date of Manufacture): 0.06%
HPLC Impurities (%) RRT 0.89 (At Date of Manufacture): 0.07%
HPLC Impurities (%) RRT 0.90 (At Date of Manufacture): ND (ND = <_0.02%)
HPLC Impurities (%) RRT 0.92 (At Date of Manufacture): 0.07%
HPLC Impurities (%) RRT 0.94 (At Date of Manufacture): ND (ND = <_0.02%)
HPLC Impurities (%) RRT 0.96 (Intermediate 2) (At Date of Manufacture): 0.16%
HPLC Impurities (%) RRT 1.02 (At Date of Manufacture): 0.39%
HPLC Impurities (%) RRT 1.04 (Intermediate 3) (At Date of Manufacture): 0.12%
HPLC Impurities (%) RRT 1.05 (Impurity 1) (At Date of Manufacture): <QL (QL = 0.05%)
HPLC Impurities (%) RRT 1.07 (At Date of Manufacture): 0.19%
HPLC Impurities (%) RRT 1.23 (At Date of Manufacture): 0.06%
HPLC Impurities (%) RRT 1.32 (At Date of Manufacture): ND (ND = <_0.02%)
HPLC Impurities (%) RRT 1.36 (Intermediate 9) (At Date of Manufacture): 0.05%
HPLC Impurities (%) RRT 1.39 (At Date of Manufacture): 0.67%
HPLC Impurities (%) RRT 1.54 (At Date of Manufacture): ND (ND = <_0.02%)
HPLC Purity (%) (At Date of Manufacture): 98.0%
Total Impurities (%) (At Date of Manufacture): 2.0%
Water Content (At Date of Manufacture): 0.27
Water Content (wt %) (At Date of Manufacture): 0.27 wt %
XRPD (At Date of Manufacture): Crystalline
Appearance [1]: Yellow
HPLC Assay (wt %) [1]: 99.5 wt %
HPLC Impurities (%) RRT 0.50 (Intermediate 5) [1]: 0.06%
HPLC Impurities (%) RRT 0.89 [1]: 0.08%
HPLC Impurities (%) RRT 0.90 [1]: <QL (QL = 0.05%)
HPLC Impurities (%) RRT 0.92 [1]: 0.06%
HPLC Impurities (%) RRT 0.94 [1]: ND (ND = <_0.02%)
HPLC Impurities (%) RRT 0.96 (Intermediate 2) [1]: 0.18%
HPLC Impurities (%) RRT 1.02 [1]: 0.38%
HPLC Impurities (%) RRT 1.04 (Intermediate 3) [1]: 0.11%
HPLC Impurities (%) RRT 1.05 (Impurity 1) [1]: ND (ND = <_0.02%)
HPLC Impurities (%) RRT 1.07 [1]: 0.15%
HPLC Impurities (%) RRT 1.23 [1]: 0.06%
HPLC Impurities (%) RRT 1.32 [1]: ND (ND = <_0.02%)
HPLC Impurities (%) RRT 1.36 (Intermediate 9) [1]: ND (ND = <_0.02%)
HPLC Impurities (%) RRT 1.39 [1]: 0.45%
HPLC Impurities (%) RRT 1.54 [1]: <QL (QL = 0.05%)
HPLC Purity (%) [1]: 98.4%
Total Impurities (%) [1]: 1.3%
Water Content [1]: 0.86
Water Content (wt %) [1]: 0.86 wt %
XRPD [1]: Crystalline
Appearance [2]: Yellow
HPLC Assay (wt %) [2]: 97.4 wt %
HPLC Impurities (%) RRT 0.50 (Intermediate 5) [2]: 0.05%
HPLC Impurities (%) RRT 0.89 [2]: 0.07%
HPLC Impurities (%) RRT 0.90 [2]: <QL (QL = 0.05%)
HPLC Impurities (%) RRT 0.92 [2]: <QL (QL = 0.05%)
HPLC Impurities (%) RRT 0.94 [2]: ND (ND = <_0.02%)
HPLC Impurities (%) RRT 0.96 (Intermediate 2) [2]: 0.18%
HPLC Impurities (%) RRT 1.02 [2]: 0.33%
HPLC Impurities (%) RRT 1.04 (Intermediate 3) [2]: 0.09%
HPLC Impurities (%) RRT 1.05 (Impurity 1) [2]: ND (ND = <_0.02%)
HPLC Impurities (%) RRT 1.07 [2]: 0.15%
HPLC Impurities (%) RRT 1.23 [2]: 0.05%
HPLC Impurities (%) RRT 1.32 [2]: ND (ND = <_0.02%)
HPLC Impurities (%) RRT 1.36 (Intermediate 9) [2]: <QL (QL = 0.05%)
HPLC Impurities (%) RRT 1.39 [2]: 0.58%
HPLC Impurities (%) RRT 1.54 [2]: <QL (QL = 0.05%)
HPLC Purity (%) [2]: 98.4%
Total Impurities (%) [2]: 1.5%
Water Content (wt %) [2]: 0.85 wt %
XRPD [2]: Crystalline
Appearance [3]: Yellow
HPLC Assay (wt %) [3]: 97.4 wt %
HPLC Impurities (%) RRT 0.50 (Intermediate 5) [3]: 0.05%
HPLC Impurities (%) RRT 0.89 [3]: 0.07%
HPLC Impurities (%) RRT 0.90 [3]: <QL (QL = 0.05%)
HPLC Impurities (%) RRT 0.92 [3]: 0.06%
HPLC Impurities (%) RRT 0.94 [3]: <QL (QL = 0.05%)
HPLC Impurities (%) RRT 0.96 (Intermediate 2) [3]: 0.17%
HPLC Impurities (%) RRT 1.02 [3]: 0.29%
HPLC Impurities (%) RRT 1.04 (Intermediate 3) [3]: <QL (QL = 0.05%)
HPLC Impurities (%) RRT 1.05 (Impurity 1) [3]: ND (ND = <_0.02%)
HPLC Impurities (%) RRT 1.07 [3]: 0.15%
HPLC Impurities (%) RRT 1.23 [3]: <QL (QL = 0.05%)
HPLC Impurities (%) RRT 1.32 [3]: 0.05%
HPLC Impurities (%) RRT 1.36 (Intermediate 9) [3]: <QL (QL = 0.05%)
HPLC Impurities (%) RRT 1.39 [3]: 0.61%
HPLC Impurities (%) RRT 1.54 [3]: <QL (QL = 0.05%)
HPLC Purity (%) [3]: 98.4%
Total Impurities (%) [3]: 1.5%
Water Content (wt %) [3]: 1.0 wt %
XRPD [3]: Crystalline
